EP4763839A1 (Pamplona Therapeutics (Shenzhen) Co., Ltd., priority 2023, dated 2025)

What was measured:
IL-6 = experiment: Inhibition of R848-induced IL-6 release in human PBMCs, IL-6 ELISA; format: cell-based; settings: PBMC, compound 24 hours, then R848 10 µg/mL 5 hours
Procedure: Example 3: Detection of inhibition of R848-induced IL-6 release
Cryopreserved human PBMCs (Milestone® Biotechnologies, PB010C-W) were thawed and resuspended in RPMI-1640 medium (Gibco, 22400-105) supplemented with 10% fetal bovine serum (Gibco, 10099-141), 100 U/mL penicillin, and 100 µg/mL streptomycin (Gibco, 15140122). Subsequently, 190 µL of the PBMC suspension was added to each well of 96-well clear cell culture plates (Corning, 3599) to achieve a density of 1×10^5 cells/well. The cell plates were incubated at 37°C in a 5% CO2 incubator for 30 minutes. Then, 5 µL of diluted compound solution was added to the corresponding cell-seeded wells to achieve final concentrations ranging from 0.046 to 3,000 nM. The final concentration of DMSO was 0.1%. After the compound-treated cell plate was incubated at 37°C in a 5% CO2 incubator for 24 hours, 5 µL of R848 (MCE, HY-13740) was added to achieve a final concentration of 10 µg/mL. The cell plates were incubated again at 37°C in a 5% CO2 incubator for 5 hours, then centrifuged at 1,000 rpm for 1 minute. 100 µL of the cell supernatant from each well was transferred to a new 96-well clear cell culture plate for IL-6 concentration testing.
Interleukin-6 (IL-6) ELISA assay
The IL-6 concentration in the supernatant of R848-induced human PBMCs was determined using a Human IL-6 (interleukin-6) ELISA KIT (4Bio, CHE0009-048). IL-6 standard solutions at different concentrations, ranging from 3.9 to 250 pg/mL, were prepared according to the manufacturer's instructions. 100 µL of each concentration of the IL-6 standard solution and the pre-diluted test cell supernatant samples were added separately to anti-IL-6 antibody-coated and blocked clear 96-well plates, followed by incubation at 37°C for 1.5 hours. According to the product instructions, the plates were washed, 100 µL of biotinylated antibody was added, and the plates were incubated at 37°C for 1 hour. The plates were washed, 100 µL of enzyme conjugate working solution was added. The plates were incubated at 37°C for 30 minutes, and then washed. 100 µL of chromogenic substrate was added, and the plates were incubated at 37°C for 10-20 minutes. The reaction was terminated by adding 100 µL of stop solution. After the reaction, the OD value at 450 nm was measured in absorbance mode using an Envision microplate reader (PerkinElmer). A standard curve was plotted using the corrected OD values of the various concentrations of IL-6 standard solutions. The IL-6 concentration in each cell supernatant was then determined on the basis of the corresponding concentration for the corrected OD value of the test sample on the standard curve. […] Subsequently, the IC50 value of the compound was calculated by performing non-linear curve fitting of concentration versus inhibition rate using GraphPad Prism 9.

IRAK4 = target: T1, IRAK4 (Homo sapiens, UniProt Q9NWZ3); experiment: Degradation of IRAK4 in THP1 cells, Western blot; format: cell-based; design: Degradation of IRAK4 in THP1 by compound; host or cells: THP-1; settings: THP-1 cells, 24 hours of incubation; for DC50: IRAK4 protein by Western blot, read-out: DC50; for Dmax: maximum degradation rate, read-out: Dmax
T1 sequence (Q9NWZ3 1-460): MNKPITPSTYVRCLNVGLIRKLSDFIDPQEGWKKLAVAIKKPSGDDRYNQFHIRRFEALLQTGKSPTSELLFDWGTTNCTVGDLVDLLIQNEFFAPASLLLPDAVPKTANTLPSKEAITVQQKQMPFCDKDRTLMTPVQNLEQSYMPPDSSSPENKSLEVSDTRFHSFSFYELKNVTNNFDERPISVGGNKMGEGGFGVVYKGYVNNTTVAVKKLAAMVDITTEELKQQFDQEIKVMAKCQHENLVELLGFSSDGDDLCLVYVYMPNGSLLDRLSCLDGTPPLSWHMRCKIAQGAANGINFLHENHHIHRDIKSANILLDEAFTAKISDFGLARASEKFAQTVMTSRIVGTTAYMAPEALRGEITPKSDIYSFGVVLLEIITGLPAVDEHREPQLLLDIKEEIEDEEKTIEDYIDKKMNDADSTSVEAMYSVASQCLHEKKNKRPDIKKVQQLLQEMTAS
Procedure, shortened: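 THP1 cells treated 24 h, lysed; lysates normalised by BCA, 40 μg protein per lane on 10% SDS-PAGE, anti-IRAK4 Western blot with chemiluminescence detection.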

[1] = Pharmacokinetic detection in rats after intravenous injection and oral administration; format: in vivo, Sprague-Dawley (SD) rats; settings: rat; for AUC / Cmax / half-life: in vivo, oral administration, 10 mg/kg; for F: oral 10 mg/kg, intravenous 2 mg/kg
Procedure: Example 4. Pharmacokinetic detection
This study was designed to investigate the pharmacokinetic properties of the compounds in rats following intravenous injection and oral administration.
Experimental protocol: Six healthy male Sprague-Dawley (SD) rats were used for each compound, randomly divided into two groups of three animals each, with body weights ranging from 180-220 g. The rats were fasted overnight (10-14 hours) prior to administration, with free access to water, and food was restored 4 hours after administration. The compounds were formulated in a vehicle consisting of 5% DMSO + 10% solutol + 85% physiological saline (w/v). […] For A170, A177, and A180, the intravenous injection group received a dose of 1 mg/kg with an administration volume of 1 mL/kg, and the oral administration group received a dose of 5 mg/kg with an administration volume of 5 mL/kg. Blank blood samples were collected prior to administration. After administration, 0.2 mL of blood was collected from the jugular vein or other suitable methods at predetermined time points (0.083 h, 0.25 h, 0.5 h, 1 h, 2 h, 4 h, 8 h, 24 h) into EDTA-K2 anticoagulant tubes, and plasma was separated by centrifugation at 6800 g for 6 minutes. After the experiment, the concentration of the compound in plasma was quantitatively detected using liquid chromatography-tandem mass spectrometry (LCMS/MS). Pharmacokinetic parameters were calculated on the basis of the plasma concentration data at different time points using Phoenix WinNonlin version 8.3.5.

SMILES	IC50 (IL-6)	DC50 (IRAK4)	Dmax (IRAK4)	AUC [1]	Cmax [1]	half-life [1]	F [1]
NC(=O)c1nn(-c2ccc(N3CCN(CCC4CCN(c5cccc(NC6CCC(=O)NC6=O)c5)CC4)CC3)cc2)cc1NC(=O)c1cccc(C(F)(F)F)n1 (centres unmarked) [Compound A196]	< 10 nM	< 100 nM	> 60%	–	–	–	–
NC(=O)c1nn(-c2ccc(CN3CCC4(CC3)CN(c3ccc5c(c3)C(=O)N(C3CCC(=O)NC3=O)C5=O)C4)cc2)cc1NC(=O)c1cccc(C(F)(F)F)n1 (centres unmarked) [Compound A224, N-(3-carbamoyl-1-(4-((2-(2-(2,6-dioxopiperidin-3-yl)-1,3-dioxoisoindolin-5-yl)-2,7-diazaspiro[3.5]nonan-7-yl)methyl)phenyl)-1H-pyrazol-4-yl)-6-(trifluoromethyl)picolinamide]	10 to 30 nM	100 to 1000 nM	> 60%	–	–	–	–
COc1ccc(C(=O)N2CCN(CCN3CCN(c4ccc(-n5cc(NC(=O)c6cccc(C(F)(F)F)n6)c(C(N)=O)n5)cc4)CC3)CC2)cc1N1CCC(=O)NC1=O [Compound A143]	< 10 nM	< 100 nM	> 60%	–	–	–	–
Cn1c(-c2ccc(N3CCC(CN4CCN(c5ccc(-n6cc(NC(=O)c7cccc(C(F)(F)F)n7)c(C(N)=O)n6)cc5)CC4)CC3)cc2)nn(C2CCC(=O)NC2=O)c1=O (centres unmarked) [Compound A189]	10 to 30 nM	100 to 1000 nM	> 60%	–	–	–	–
NC(=O)c1nn(-c2ccc(N3CCN(CC4CCN(c5ccc(NC6CCC(=O)NC6=O)cc5F)CC4)CC3)cc2)cc1NC(=O)c1cccc(C(F)(F)F)n1 (centres unmarked) [Compound A195]	< 10 nM	–	–	19300 ng·h/mL	1250 ng/mL	15 h	52%
NC(=O)c1nn(-c2ccc(N3CCN(CC4CCN(c5ccc6c(c5)C(=O)N(C5CCC(=O)NC5=O)C6=O)C4)CC3)cc2)cc1NC(=O)c1cccc(C(F)(F)F)n1 (centres unmarked) [Compound A227]	< 10 nM	< 100 nM	> 60%	–	–	–	–
Cn1c(=O)n(C2CCC(=O)NC2=O)c2cccc(N3CCN(CCN4CCN(c5ccc(N6C=C(NC(=O)c7cccc(C(F)(F)F)n7)C(=C=O)N6)cc5)CC4)CC3)c21 (centres unmarked) [Compound A180, N-(3-carbonyl-1-(4-(4-(2-(4-(1-(2,6-dioxopiperidin-3-yl)-3-methyl-2-oxo-2,3-dihydro-1H-benzo[d]imidazol-4-yl)piperazin-1-yl)ethyl)piperazin-1-yl)phenyl)-1H-pyrazol-4-yl)-6-(trifluoromethyl)picolinamide]	< 10 nM	< 100 nM	> 60%	–	–	–	–
Cn1c(=O)n(C2CCC(=O)NC2=O)c2cccc(N3CCC4(CCN(C(=O)c5ccc(-n6cc(NC(=O)c7cccc(C(F)(F)F)n7)c(C(N)=O)n6)cc5)C4)CC3)c21 (centres unmarked) [Compound A135]	< 10 nM	< 100 nM	> 60%	–	–	–	–
COc1ccc(C(=O)N2CCC(CCN3CCN(c4ccc(-n5cc(NC(=O)c6cccc(C(F)(F)F)n6)c(C(F)F)n5)cc4)CC3)CC2)cc1N1CCC(=O)NC1=O [Compound A148]	10 to 30 nM	100 to 1000 nM	> 60%	–	–	–	–
NC(=O)c1nn(-c2ccc(N3CCN(CC4CCN(c5ccc6c(c5)C(=O)N(C5CCC(=O)NC5=O)C6=O)CC4)CC3)cc2)cc1NC(=O)c1cccc(C(F)(F)F)n1 (centres unmarked) [Compound A122]	< 10 nM	< 100 nM	> 60%	–	–	–	–
Cn1c(=O)n(C2CCC(=O)NC2=O)c2cccc(N3CCC4(CC3)CC(NCc3ccc(-n5cc(NC(=O)c6cccc(C(F)(F)F)n6)c(C(N)=O)n5)cc3)C4)c21 (centres unmarked) [Compound A137]	< 10 nM	< 100 nM	> 60%	–	–	–	–
NC(=O)c1nn(-c2ccc(N3CCC(NCC4CCN(c5ccc6c(c5)C(=O)N(C5CCC(=O)NC5=O)C6=O)C4)CC3)cc2)cc1NC(=O)c1cccc(C(F)(F)F)n1 (centres unmarked) [Compound A228]	< 10 nM	< 100 nM	> 60%	–	–	–	–
Cn1c(=O)n(C2CCC(=O)NC2=O)c2cccc(N3CCC(CCN4CCN(c5ccc(-n6cc(NC(=O)c7cccc(C(F)(F)F)n7)c(C(N)=O)n6)cc5)CC4)CC3)c21 (centres unmarked) [Compound A182, N-(3-carbamoyl-1-(4-(4-(2-(1-(1-(2,6-dioxopiperidin-3-yl)-3-methyl-2-oxo-2,3-dihydro-1H-benzo[d]imidazol-4-yl)piperidin-4-yl)ethyl)piperazin-1-yl)phenyl)-1H-pyrazol-4-yl)-6-(trifluoromethyl)picolinamide]	< 10 nM	< 100 nM	> 60%	–	–	–	–
Cn1c(=O)n(C2CCC(=O)NC2=O)c2cccc(C#CCOC3CCN(CC4CCC(n5cc(NC(=O)c6cnn7ccc(N8CC9CC8CO9)nc67)c(C(F)F)n5)CC4)CC3)c21 (centres unmarked) [Control compound 1, reference compound]	–	–	–	428 ng·h/mL	98 ng/mL	4 h	8%
NC(=O)c1nn(-c2ccc(N3CCN(CC4CCN(c5cccc(NC6CCC(=O)NC6=O)c5)CC4)CC3)cc2)cc1NC(=O)c1cccc(C(F)(F)F)n1 (centres unmarked) [Compound A197]	10 to 30 nM	< 100 nM	> 60%	–	–	–	–
Cn1c(-c2ccc(N3CCC(CN4CCN(c5ccc(-n6cc(NC(=O)c7cccc(C(F)(F)F)n7)c(C(N)=O)n6)cc5)CC4)C3)cc2)nn(C2CCC(=O)NC2=O)c1=O (centres unmarked) [Compound A187]	< 10 nM	< 100 nM	> 60%	–	–	–	–
NC(=O)c1nn(-c2ccc(N3CCN(CCN4CCN(c5ccc6c(c5)C(=O)N(C5CCC(=O)NC5=O)C6=O)CC4)CC3)cc2)cc1NC(=O)c1cccc(C(F)(F)F)n1 (centres unmarked) [Compound A173]	< 10 nM	–	–	1130 ng·h/mL	107 ng/mL	21 h	18%
COc1ccc(C(=O)N2CCC(CCN3CCN(c4ccc(-n5cc(NC(=O)c6cccc(C(F)(F)F)n6)c(C(N)=O)n5)cc4)CC3)CC2)cc1N1CCC(=O)NC1=O [Compound A144]	< 10 nM	< 100 nM	> 60%	–	–	–	–
Cn1c(=O)n(C2CCC(=O)NC2=O)c2cccc(N3CCC4(CCN(Cc5ccc(-n6cc(NC(=O)c7cccc(C(F)(F)F)n7)c(C(N)=O)n6)cc5)C4)CC3)c21 (centres unmarked) [Compound A140]	< 10 nM	< 100 nM	> 60%	–	–	–	–
